Laboratory results published in patent US9453026B2, “ACC inhibitors and uses thereof” (Gilead Apollo, Inc., priority 2011, dated 2016).
Where two headings read alike, the source gives them in different places.

Columns and labels:
[1] = assay type: in vivo, Sprague Dawley rats; conditions: 2 weeks
Protocol: The compounds of the present invention are readily adapted to clinical use as anti-obesity agents, insulin sensitizing agents, hyperinsulinemia-reversing agents, and hepatic steatosis-reversing agents. Such activity was determined by assessing the amount of test compound that reduces body weight and percentage body fat, reduces plasma insulin levels, blunts the rise and/or accelerates the reduction in plasma insulin and glucose levels in response to an oral glucose challenge, and reduces hepatic lipid content relative to a control vehicle without test compound in mammals. Sprague Dawley rats were fed either chow, a diet high in sucrose (for example AIN76A rodent diet; Research diets Inc. Cat #10001) or a diet high in fat (for example Research diets Inc. Cat #12451), for from 3-8 weeks prior to and during test compound administration.
For example, after a 3-8 week period of ad libitum feeding of either a chow, high-fat, or high-sucrose diet, animals that continued to receive the diet were treated for 1-8 weeks with test compound administered either by oral gavage in water or saline or water or saline containing 0.5% methylcelluose using a Q.D., B.I.D, or T.I.D. dosing regimen. At various times during study and at sacrifice (by CO2 asphyxiation), blood was collected either from the tail vein of an unanesthesized rat or from the vena cava of animals at sacrifice into heparin or EDTA containing tubes for centrifugal separation to prepare plasma. Plasma levels of parameters of lipid and carbohydrate metabolism known by those skilled in the art to be altered coincident with anti-obesity, insulin sensitizing, hyperinsulinemia-reversing, and hepatic steatosis-reversing actions, including but not limited to cholesterol and triglycerides, glucose, insulin, leptin, adiponectin, ketone bodies, free fatty acids, and glycerol, are measured using methods known to those skilled in the art.
The anti-obesity, insulin sensitizing, hyperinsulinemia-reversing, and hepatic steatosis-reversing potential of compounds of the present invention are exemplified through the actions of example compound I-181. […] Results of the reduction in total body weight measurements after treatment of high fat diet-fed DIO rats with compound I-181 are shown in FIG. 11. The degree of body weight reduction paralleled plasma drug levels measured at the end of the study. […] The plasma leptin levels for animals receiving the standard chow diet (lean controls) were also evaluated to determine the extent of parameter normalization produced by compound I-181. […] Results of the reduction in plasma insulin measurements after treatment of high fat diet-fed DIO rats with compound I-181 are shown in FIG. 12. […] Results of the reduction in hepatic triglyceride and cholesterol measurements after treatment of high fat diet-fed DIO rats with compound I-181 are shown in FIG. 13. […] Results of diet-induced obesity studies measuring the effect of compound I-181 on plasma cholesterol and plasma triglycerides are shown in Table 4 below. Data shown are mean values for n=14 animals per group±SEM.

C. krusei ATCC 6258 = experiment: Anti-Fungal Activity Assay (broth microtiter MIC); assay type: cell-based; conditions: 3 replicates, test compounds read at 48 h
C. albicans ATCC 90028 = experiment: Anti-Fungal Activity Assay (broth microtiter MIC); assay type: cell-based; conditions: 3 replicates, test compounds read at 48 h
[2] = system: C. parapsilosis ATCC 22019; experiment: Anti-Fungal Activity Assay (broth microtiter MIC); assay type: cell-based; conditions: 3 replicates, test compounds read at 48 h
[3] = high-fat diet rats, 3, 10, 30 mg/kg once daily oral gavage

Structure (SMILES): COc1ccccc1[C@H](Cn1c(=O)n(C(C)(C)C(=O)O)c(=O)c2c(C)c(-c3ncco3)sc21)OC1CCOCC1 [I-181, 2-[1-[2-(2-methoxyphenyl)-2-(oxan-4-yloxy)ethyl]-5-methyl-6-(1,3-oxazol-2-yl)-2,4-dioxo-1H,2H,3H,4H-thieno[2,3-d]pyrimidin-3-yl]-2-methylpropanoic acid]
- plasma glucose levels [1, 3]: no concomitant reduction in plasma glucose levels
- plasma leptin levels [1, 3]: reduced by all compound I-181 doses evaluated
- total body weight relative to vehicle-treated control animals ([1]; high-fat diet rats, 3, 10, 30 mg/kg once daily oral gavage, FIG. 11): dose-dependent reduction in total body weight
- plasma insulin levels ([1]; high-fat diet rats, 3, 10, 30 mg/kg once daily oral gavage, FIG. 12): reduced to near lean control levels by all three compound I-181 doses
- hepatic triglycerides ([1]; high-fat diet rats, 3, 10, 30 mg/kg once daily oral gavage, FIG. 13): reduced in a dose-dependent manner
- hepatic triglycerides at the highest dose ([1]; high-fat diet rats, highest dose evaluated (30 mg/kg)): normalized to lean control levels by the highest dose evaluated
- MIC (C. krusei ATCC 6258): >64 µg/mL
- MIC (C. krusei ATCC 6258; Pichia kudriavzevii, ATCC6258, 48 h, read-out: MIC): > 64 µg/mL
- MIC (C. albicans ATCC 90028): >64 µg/mL
- MIC (C. albicans ATCC 90028; Candida albicans, ATCC90028, 48 h, read-out: MIC): > 64 µg/mL
- MIC [2]: >64 µg/mL
- MIC ([2]; Lodderomyces parapsilosis, ATCC22019, 48 h, read-out: MIC): > 64 µg/mL
